# Assay results published in patent US9232792B2, “Method for promoting plant growth” (SUMITOMO CHEMICAL COMPANY, LIMITED, priority 2011, dated 2016).
# Tests used:
# Assay type in all cases: in vivo
# [1] = system: Rice (cultivar: Nipponbare); assay: Test Example 3: promotion of root growth in hydroponics of rice; settings: 1 ppm in hydroponic solution; 3 days germination + 3 days cultivation
# Method: (§1) Rice (cultivar: Nipponbare)
# (§2) DMSO solutions containing each of the present compounds 4 to 8 at 10,000 ppm were prepared. A 1/10,000 volume of each DMSO solution containing each of the present compounds 4 to 8 at 10,000 ppm was added to a Hoagland solution for hydroponics at ¼ concentration (Hoagland and Arnon, California Agricultural Experiment Station 1950 Circular 347 pp. 34) to obtain a solution for hydroponics containing each of the present compounds 4 to 8 at 1 ppm. These solutions were used in the treated-group.
# (§3) In a non-treated group, a solution for hydroponics obtained by adding a Hoagland solution for hydroponics at ¼ concentration to a 1/10,000 volume of DMSO was used.
# (§4) The rice seeds were immersed in an aqueous solution of 1% sodium hypochlorite for 10 minutes, followed by 70% ethanol solution to sterilize their surfaces. After that, the seeds were washed with distilled water. The sterilized seeds were immersed in each solution for hydroponics containing the test compound at the given concentration, and incubated at a temperature of 28° C. for 3 days under dark conditions to stimulate the germination of the seeds.
# (§5) Then, 30 ml of each solution for hydroponics containing the test compound at the given concentration was dispensed into a plastic tube (20 mm in diameter×113 mm in height) covered with a cardboard on the lateral surface for blocking a light. A float made of a styrene board and a vinyl mesh was placed on the water surface of each solution for hydroponics, and the rice seeds obtained after the stimulation of germination were placed on the float. The seeds were cultivated for 3 days under the conditions of an illuminance of 4,000 lux at the top of the tube, a temperature of 26° C., a humidity of 50%, and a day length of 16 hours.
# The root length of the rice seedlings obtained after the cultivation was measured by using WinRHIZO system (manufactured by REGENT INSTRUMENTS). The average value of the root length in the treated group was calculated from the measurement values of 4 or 5 individuals. As a result, the root length in the treated group, wherein the plants were treated with the present compound 4, 5, 6, 7 or 8 (at a concentration of 1 ppm in each case), was much longer than that in the non-treated group.
# [2] = system: Tobacco (Nicotiana benthamiana); assay: Test Example 4: reduction of low-temperature stress in hydroponics of tobacco; settings: 10 ppm in medium; 1.5±1.0° C. for 7 days, then 3 days at 22° C.
# Method: Tobacco (Nicotiana benthamiana)
# DMSO solutions containing each of the present compounds 1 to 4 at a concentration of 10,000 ppm were prepared. A 1/1,000 volume of each DMSO solution was added to a Murashige-and-Skoog medium (a medium containing 2.3 g of a mixture of salts for Murashige-and-Skoog medium (manufactured by Wako. Pure Chemical Industries, Ltd.), 200 mg of myoinositol (manufactured by Sigma-Aldrich), 2 mg of nicotinic acid (manufactured by Wako Pure Chemical Industries, Ltd.), 2 mg of pyridoxine hydrochloride (manufactured by Wako Pure Chemical Industries, Ltd.), 20 mg of thiamine hydrochloride (manufactured by Wako Pure Chemical Industries, Ltd.), 20 g of sucrose (manufactured by Wako Pure Chemical Industries, Ltd.), 1 g of MES (manufactured by DOJINDO LABORATORIES) in 1 L of water, adjusted to pH 5.8) at ½ concentration to obtain a medium containing the test compound at a concentration of 10 ppm. These media were used in the treated-group.
# In a non-treated group, a medium obtained by adding a 1/1,000 volume of DMSO to a Murashige-and-Skoog medium at ½ concentration was used.
# The seeds of tobacco (Nicotiana benthamiana) were sown on 5 μL of the medium, and incubated at 22° C. overnight. Thereto was added 45 μL of a medium containing each present compound at a concentration of 10 ppm, and cultivated for 7 days under the conditions of an illuminance of 4,000 lux, a temperature of 22° C. and a day length of 16 hours, thereby treating the seedlings of tobacco (Nicotiana benthamiana) with the test compound.
# In the non-treated group, 45 μL of a medium obtained by adding a 1/1,000 volume of DMSO to a Murashige-and-Skoog medium at ½ concentration was added, and treated in the same manner as above.
# The seedlings of tobacco (Nicotiana benthamiana) treated with the present compounds were cultivated for 7 days under the conditions of an illuminance of 2,000 lux, a temperature of 1.5±1.0° C., and a day length of 16 hours, thereby subjecting to low-temperature stress treatment.
# The plants of tobacco (Nicotiana benthamiana) subjected to low-temperature stress treatment was cultivated for 3 days under the conditions of an illuminance of 4,000 lux, a temperature of 22° C., and a day length of 16 hours, and then the green leaf area of the plants was visually evaluated. Completely dead plant was scored as 0, the plant without low-temperature stress treatment was scored as 5, the green area was rated on a 6-point scale in ⅕ increments, and the score of not less than 1 was regarded as effective in reducing the stress. As a result of visual evaluation, the green leaf area of plants in the treated group, wherein the plants were treated with the present compound 1, 2, 3 or 4 was much larger than that in the non-treated group.
# [3] = system: Rice (cultivar: Nipponbare); assay: Test Example 1: promotion of root growth in hydroponics of rice; settings: 1 ppm in hydroponic solution; 3 days germination + 3 days cultivation
# Method: as §1
# as §2, with “compounds 1” for “compounds 4”, “to 3” for “to 8”
# as §3, §4, §5
# The root length of the rice seedlings obtained after the cultivation was measured by using WinRHIZO system (manufactured by REGENT INSTRUMENTS). The average value of the root length in the treated group was calculated from the measurement values of 4 or 5 individuals. […]
Molecule,root length of the rice seedlings vs non-treated group [1],green leaf area of plants (visual evaluation) vs non-treated group [2],root length of the rice seedlings vs non-treated group [3]
laurylammonium 5-(trifluoromethyl)benzo[b]thiophene-2-carboxylate [The present compound 8],much longer,–,–
"O=C(O)c1cc2cccc(C(F)(F)F)c2s1 [The present compound 4, 7-(trifluoromethyl)benzo[b]thiophene-2-carboxylic acid]",much longer,much larger,–
"O=C([O-])c1cc2cc(C(F)(F)F)ccc2s1.[K+] [The present compound 6, potassium 5-(trifluoromethyl)benzo[b]thiophene-2-carboxylate]",much longer,–,–
"O=C([O-])c1cc2cc(C(F)(F)F)ccc2s1.[Na+] [The present compound 5, sodium 5-(trifluoromethyl)benzo[b]thiophene-2-carboxylate]",much longer,–,–
"O=C(O)c1cc2c(C(F)(F)F)cccc2s1 [The present compound 3, 4-(trifluoromethyl)benzo[b]thiophene-2-carboxylic acid]",–,much larger,much longer
"O=C(O)c1cc2ccc(C(F)(F)F)cc2s1 [The present compound 2, 6-(trifluoromethyl)benzo[b]thiophene-2-carboxylic acid]",–,much larger,much longer
"CC(C)N.O=C(O)c1cc2cc(C(F)(F)F)ccc2s1 [The present compound 7, isopropylammonium 5-(trifluoromethyl)benzo[b]thiophene-2-carboxylate]",much longer,–,–
